Test: recombinant barcode read abundance after kanamycin selection (control-corrected) (log10(CPM+1)); higher = more efficient recombination; sequences stand for … in AGTGCAGAGAAAATCGGCCAGTTTTCTCTGCCTGCAGTCCGCATGCCGT…AGATTTATGCAGCGGACTGCCTTTCTCCCAAAGTGATAAACCGGACAGTATCATGGACCGGTTTTCCCGGTAATCCGTATTTGCAAGGTTGGTTTCACT; site = the 11-nt target
Outline: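 IS621 bridge RNA target-binding loops were paired with targets in a pooled library tested in E. coli. After co-electroporation with a donor plasmid, cells were plated in two replicates on chloramphenicol/ampicillin LB agar (control) and on chloramphenicol/ampicillin/kanamycin carrying 0.1 mM IPTG. Barcodes at recombinant junctions were counted as counts per million, averaged and control-corrected to give recombination efficiency. Values are log10(CPM+1).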
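Also: IS621 recombinase and bridge RNA in Escherichia coli cells.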

Going from “CAGGCGCCTTGGGTTCTAACCTGTTGCCT (site CAGGCGTCTAG)” to “CAGGCGTCTTGGGTTCTAACCTGTTGCCT (site CAGGCGACTAG)”, the “recombinant barcode read abundance (log10)” value falls from 0.527 to 0.109.

“CAGGCGTCTTGGGTTCTAACCTGTTGCCT (site CAGGCGCCTAG)” and “CAGGCGTCTTGGGTTCTAACCTGTTGCCT (site CAGGCGGCTAG)” are within 0.2 log units of each other in “recombinant barcode read abundance (log10)” value: 0.289 for the first, 0.111 for the second.

First: CAGGCGTCTTGGGTTCTAACCTGTTGCCT (site CAGGCGTCTAG)
Second: CAGGGGACTTGGGTTCTAACCTGTTGCCG (site CAAGGGACTCC)
The “recombinant barcode read abundance (log10)” value of the first is higher: 0.59 for the first, 0.177 for the second.

Compared with “CAGGGGACTTGGGTTCTAACCTGTTGCCG (site CAGGGGACTCG)”, “CAGGGGTCTTGGGTTCTAACCTGTTGCAT (site AGCCTCCCTTG)” is lower in “recombinant barcode read abundance (log10)” value: 0.734 for the first, 0.0284 for the second.

First: CAGGGGTCTTGGGTTCTAACCTGTTGCAT (site CAGGGGTCTAT)
Second: CAGTAATCTTGGGTTCTAACCTGTTGCCT (site CAGTAATCTAG)
The “recombinant barcode read abundance (log10)” value of the first is higher: 2.04 for the first, 0.683 for the second.

“CAGTAATCTTGGGTTCTAACCTGTTGCCT (site CAGTACTCTAG)” and “CAGTAATCTTGGGTTCTAACCTGTTGCCT (site CAGTAGTCTAG)” are within 0.2 log units of each other in “recombinant barcode read abundance (log10)” value: 0.138 for the first, 0.169 for the second.

“CAGTAATCTTGGGTTCTAACCTGTTGCCT (site CAGTATTCTAG)” and “CAGTCTACTTGGGTTCTAACCTGTTGCCT (site CAGTCTACTAG)” are within 0.2 log units of each other in “recombinant barcode read abundance (log10)” value: 0 for the first, 0.115 for the second.

“CAGTCTACTTGGGTTCTAACCTGTTGCCT (site CCGTCTACTAG)” and “CAGTCTACTTGGGTTCTAACCTGTTGCCT (site CGGTCTACTAG)” are within 0.2 log units of each other in “recombinant barcode read abundance (log10)” value: 0.26 for the first, 0.132 for the second.

“CAGTCTACTTGGGTTCTAACCTGTTGCCT (site CTGTCTACTAG)” and “CATAACTCTTGGGTTCTAACCTGTTGCCT (site AATAACTCTAG)” are within 0.2 log units of each other in “recombinant barcode read abundance (log10)” value: 0.0878 for the first, 0.0585 for the second.

Going from “CATAACTCTTGGGTTCTAACCTGTTGCCT (site CATAACTCTAG)” to “CATAACTCTTGGGTTCTAACCTGTTGCCT (site GATAACTCTAG)”, the “recombinant barcode read abundance (log10)” value falls from 1.3 to 0.331.

First: CATAACTCTTGGGTTCTAACCTGTTGCCT (site TATAACTCTAG)
Second: CATAAGCCTTGGGTTCTAACCTGTTGCCT (site CATAAGCCTAG)
The “recombinant barcode read abundance (log10)” value of the first is lower: 0.0747 for the first, 0.633 for the second.

“CATAAGCCTTGGGTTCTAACCTGTTGCCT (site CATCAGCCTAG)” and “CATAAGCCTTGGGTTCTAACCTGTTGCCT (site CATGAGCCTAG)” are within 0.2 log units of each other in “recombinant barcode read abundance (log10)” value: 0.07 for the first, 0.0152 for the second.

“CATAAGCCTTGGGTTCTAACCTGTTGCCT (site CATTAGCCTAG)” and “CATAGATCTTGGGTTCTAACCTGTTGCAT (site ATCTAGGCTCG)” are within 0.2 log units of each other in “recombinant barcode read abundance (log10)” value: 0.0852 for the first, 0.0128 for the second.

Compared with “CATAGATCTTGGGTTCTAACCTGTTGCAT (site CATAGATCTAT)”, “CATAGTCCTTGGGTTCTAACCTGTTGCCT (site CAGAGTCCTAA)” is lower in “recombinant barcode read abundance (log10)” value: 1.22 for the first, 0.0573 for the second.

“CATAGTCCTTGGGTTCTAACCTGTTGCCT (site CATAGTCCTAG)” and “CATATAGCTTGGGTTCTAACCTGTTGCAT (site CATATAGCTAT)” are within 0.2 log units of each other in “recombinant barcode read abundance (log10)” value: 0.605 for the first, 0.693 for the second.

Compared with “CATATAGCTTGGGTTCTAACCTGTTGCAT (site GATCTAGCTAT)”, “CATCAAGCTTGGGTTCTAACCTGTTGCCT (site CATCAAGCTAG)” is higher in “recombinant barcode read abundance (log10)” value: 0.667 for the first, 0.929 for the second.

“CATCAAGCTTGGGTTCTAACCTGTTGCCT (site GTATGGACTTT)” and “CATCCGACTTGGGTTCTAACCTGTTGCTC (site AGATTTCCTAT)” are within 0.2 log units of each other in “recombinant barcode read abundance (log10)” value: 0.0466 for the first, 0.122 for the second.

“CATCCGACTTGGGTTCTAACCTGTTGCTC (site CATCCGACTGA)” and “CATCCGCCTTGGGTTCTAACCTGTTGCCT (site CATCCGACTAG)” are within 0.2 log units of each other in “recombinant barcode read abundance (log10)” value: 0.193 for the first, 0.0105 for the second.

Compared with “CATCCGCCTTGGGTTCTAACCTGTTGCCT (site CATCCGCCTAG)”, “CATCCGCCTTGGGTTCTAACCTGTTGCCT (site CATCCGGCTAG)” is lower in “recombinant barcode read abundance (log10)” value: 1.11 for the first, 0.0751 for the second.

“CATCCGCCTTGGGTTCTAACCTGTTGCCT (site CATCCGTCTAG)” and “CATCGAGCTTGGGTTCTAACCTGTTGCCG (site CAACGAGCTCG)” are within 0.2 log units of each other in “recombinant barcode read abundance (log10)” value: 0.0465 for the first, 0.228 for the second.

“CATCGAGCTTGGGTTCTAACCTGTTGCCG (site CACCGAGCTCG)” and “CATCGAGCTTGGGTTCTAACCTGTTGCCG (site CAGCGAGCTCG)” are within 0.2 log units of each other in “recombinant barcode read abundance (log10)” value: 0.43 for the first, 0.236 for the second.

“CATCGAGCTTGGGTTCTAACCTGTTGCCG (site CATCGAGCTCG)” and “CATCGCTCTTGGGTTCTAACCTGTTGCTT (site CACCGTTCTAA)” are within 0.2 log units of each other in “recombinant barcode read abundance (log10)” value: 0.283 for the first, 0.0858 for the second.

Compared with “CATCGCTCTTGGGTTCTAACCTGTTGCTT (site CATCGCTCTAA)”, “CATGCGACTTGGGTTCTAACCTGTTGCTG (site CATGCGACTCA)” is higher in “recombinant barcode read abundance (log10)” value: 0.0993 for the first, 0.459 for the second.

First: CATGCGACTTGGGTTCTAACCTGTTGCTG (site CATGCTACTGA)
Second: CATGCGCCTTGGGTTCTAACCTGTTGCGG (site CATGCGCCTCC)
The “recombinant barcode read abundance (log10)” value of the first is lower: 0.351 for the first, 1.26 for the second.

“CATGCGCCTTGGGTTCTAACCTGTTGCGG (site CATGTGTCTCC)” and “CATGCTTCTTGGGTTCTAACCTGTTGCCT (site AGAAAAGCTTT)” are within 0.2 log units of each other in “recombinant barcode read abundance (log10)” value: 0.0282 for the first, 0.167 for the second.

First: CATGCTTCTTGGGTTCTAACCTGTTGCCT (site CATGCTTCTAG)
Second: CATGGGACTTGGGTTCTAACCTGTTGCAT (site CATGGGACTAT)
The “recombinant barcode read abundance (log10)” value of the first is lower: 0.526 for the first, 2.06 for the second.

“CATGGGACTTGGGTTCTAACCTGTTGCAT (site GGCAAACCTCC)” and “CATGTGTCTTGGGTTCTAACCTGTTGCGG (site CATGCGCCTCC)” are within 0.2 log units of each other in “recombinant barcode read abundance (log10)” value: 0.202 for the first, 0.0713 for the second.

First: CATGTGTCTTGGGTTCTAACCTGTTGCGG (site CATGTGTCTCC)
Second: CATTATTCTTGGGTTCTAACCTGTTGCCT (site CATAATTCTAG)
The “recombinant barcode read abundance (log10)” value of the first is higher: 2.69 for the first, 0.04 for the second.

“CATTATTCTTGGGTTCTAACCTGTTGCCT (site CATCATTCTAG)” and “CATTATTCTTGGGTTCTAACCTGTTGCCT (site CATGATTCTAG)” are within 0.2 log units of each other in “recombinant barcode read abundance (log10)” value: 0.0417 for the first, 0.071 for the second.

First: CATTATTCTTGGGTTCTAACCTGTTGCCT (site CATTATTCTAG)
Second: CATTCCACTTGGGTTCTAACCTGTTGCCT (site CATTCCACTAG)
The “recombinant barcode read abundance (log10)” value of the first is lower: 0.0377 for the first, 0.369 for the second.

“CATTCCACTTGGGTTCTAACCTGTTGCCT (site TCGCGTGCTCC)” and “CATTCTGCTTGGGTTCTAACCTGTTGCCT (site CAATCTGCTAG)” are within 0.2 log units of each other in “recombinant barcode read abundance (log10)” value: 0.0105 for the first, 0.136 for the second.

“CATTCTGCTTGGGTTCTAACCTGTTGCCT (site CACTCTGCTAG)” and “CATTCTGCTTGGGTTCTAACCTGTTGCCT (site CAGTCTGCTAG)” are within 0.2 log units of each other in “recombinant barcode read abundance (log10)” value: 0.0741 for the first, 0.136 for the second.

“CATTCTGCTTGGGTTCTAACCTGTTGCCT (site CATTCTGCTAG)” and “CATTGGACTTGGGTTCTAACCTGTTGCCT (site CAATGGACTAG)” are within 0.2 log units of each other in “recombinant barcode read abundance (log10)” value: 0.12 for the first, 0.112 for the second.

“CATTGGACTTGGGTTCTAACCTGTTGCCT (site CACTGGACTAG)” and “CATTGGACTTGGGTTCTAACCTGTTGCCT (site CAGTGGACTAG)” are within 0.2 log units of each other in “recombinant barcode read abundance (log10)” value: 0.0737 for the first, 0.084 for the second.

First: CATTGGACTTGGGTTCTAACCTGTTGCCT (site CATTGGACTAG)
Second: CATTGTCCTTGGGTTCTAACCTGTTGCGT (site CATTATCCTAC)
The “recombinant barcode read abundance (log10)” value of the first is higher: 0.662 for the first, 0.15 for the second.

First: CATTGTCCTTGGGTTCTAACCTGTTGCGT (site CATTGTCCTAC)
Second: CCAAAGGCTTGGGTTCTAACCTGTTGCCT (site CCAAAGGCTAG)
The “recombinant barcode read abundance (log10)” value of the first is higher: 1.38 for the first, 0.656 for the second.

“CCAAAGGCTTGGGTTCTAACCTGTTGCCT (site CCTAATGCTAG)” and “CCAACACCTTGGGTTCTAACCTGTTGCCT (site CCAACACCTAG)” are within 0.2 log units of each other in “recombinant barcode read abundance (log10)” value: 0.412 for the first, 0.465 for the second.

“CCAACACCTTGGGTTCTAACCTGTTGCCT (site CCAAGTCCTAG)” and “CCAAGCTCTTGGGTTCTAACCTGTTGCCT (site CCAAGCACTAG)” are within 0.2 log units of each other in “recombinant barcode read abundance (log10)” value: 0.0965 for the first, 0.0905 for the second.

“CCAAGCTCTTGGGTTCTAACCTGTTGCCT (site CCAAGCCCTAG)” and “CCAAGCTCTTGGGTTCTAACCTGTTGCCT (site CCAAGCGCTAG)” are within 0.2 log units of each other in “recombinant barcode read abundance (log10)” value: 0.177 for the first, 0.214 for the second.

First: CCAAGCTCTTGGGTTCTAACCTGTTGCCT (site CCAAGCTCTAG)
Second: CCAAGGCCTTGGGTTCTAACCTGTTGCCT (site ACAAGGCCTAG)
The “recombinant barcode read abundance (log10)” value of the first is higher: 1.32 for the first, 0.161 for the second.

First: CCAAGGCCTTGGGTTCTAACCTGTTGCCT (site CCAAGGCCTAG)
Second: CCAAGGCCTTGGGTTCTAACCTGTTGCCT (site GCAAGGCCTAG)
The “recombinant barcode read abundance (log10)” value of the first is lower: 0.0291 for the first, 0.28 for the second.

“CCAAGGCCTTGGGTTCTAACCTGTTGCCT (site TCAAGGCCTAG)” and “CCAAGTCCTTGGGTTCTAACCTGTTGCCT (site CCAACACCTAG)” are within 0.2 log units of each other in “recombinant barcode read abundance (log10)” value: 0.0686 for the first, 0.0147 for the second.

Compared with “CCAAGTCCTTGGGTTCTAACCTGTTGCCT (site CCAAGTCCTAG)”, “CCAATCTCTTGGGTTCTAACCTGTTGCCT (site CCAATCTCTAG)” is lower in “recombinant barcode read abundance (log10)” value: 0.892 for the first, 0.276 for the second.
